Reference: article PMC9532951, “Identification and characterization of a novel SNAT2 (SLC38A2) inhibitor reveals synergy with glucose transport inhibition in cancer cells” (Frontiers in Pharmacology, 2022)
“And” between values parts separate entries of the source, which are not always exact repeats. Identical values can stand only once.

Assays:
[1] = biological target: T1, SNAT1 and SNAT2 (Homo sapiens, UniProt Q9H2H9); assay: FMP assay in HCC1806 clones C10 (ASCT2ko) and D126 (ASCT2ko, SNAT2ko); type: cell-based; conditions: D126 cells
T1 construct: endogenous in cells; host or cells: HCC1806 clone C10 (ASCT2ko) and clone D126 (ASCT2ko, SNAT2ko), amino acid depleted for 24 h
T1 sequence (Q9H2H9 1-487): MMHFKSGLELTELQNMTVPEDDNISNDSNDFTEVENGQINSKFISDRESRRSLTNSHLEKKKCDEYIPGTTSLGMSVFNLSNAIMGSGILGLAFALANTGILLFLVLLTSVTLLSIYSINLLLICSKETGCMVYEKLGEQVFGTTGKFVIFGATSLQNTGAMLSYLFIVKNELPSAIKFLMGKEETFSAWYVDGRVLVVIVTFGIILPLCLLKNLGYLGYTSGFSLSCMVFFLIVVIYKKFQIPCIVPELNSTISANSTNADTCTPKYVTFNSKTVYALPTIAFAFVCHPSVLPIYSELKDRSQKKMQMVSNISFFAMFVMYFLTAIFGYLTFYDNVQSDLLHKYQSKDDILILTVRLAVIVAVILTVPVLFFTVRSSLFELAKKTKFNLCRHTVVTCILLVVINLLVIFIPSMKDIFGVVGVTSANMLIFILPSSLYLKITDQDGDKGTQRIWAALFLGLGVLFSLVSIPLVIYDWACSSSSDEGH
Procedure: (§1) To delete the SNAT2 (SLC38A2) gene in modified HCC1806 cells (clone C10 nullizygous for ASCT2 ([Broer et al., 2019])), the GeneArt CRISPR Nuclease Vector with OFP Reporter Kit (Invitrogen; A21174) was employed and complementary 19–20 bp long single-stranded oligonucleotides with overhangs were designed to produce a guide RNA (gRNA) for the Cas9 nuclease that would target exon 7 of the SNAT2 gene. Colonies were analysed by sequencing using the U6 primer included in the GeneArt CRISPR Nuclease Vector with OFP Reporter kit. Plasmids that contained the correct CRISPR nuclease construct were then used to transfect HCC1806 cells with Lipofectamine 2000 (Invitrogen). Prior to transfection, medium was replaced with 2 ml of fresh DMEM/F-12 (supplemented with 10% heat-inactivated FBS and 2 mM glutamine). Plasmid DNA (4 µg) and 10 µL of Lipofectamine 2000 were incubated separately for 5 min at room temperature in 500 µl of Opti-MEM (Invitrogen) before being combined and incubated for a further 30 min at room temperature. The DNA-Lipofectamine complex was then added to the cells in a dropwise manner and allowed to be absorbed over 6 h at 37°C, after which the medium was renewed with fresh DMEM/F-12. Cells were checked for red fluorescence using an EVOS FL cell imaging system (Thermo Fisher Scientific) 48–72 h post transfection. Subsequently, cells were detached using 0.25% Trypsin EDTA. After harvesting and washing thrice with PBS (pH 7.4), cells were resuspended in PBS (pH 7.4) supplemented with 5 mM glucose and 1% dialysed and heat inactivated FBS and passed through a 100 μm cell strainer. The cell filtrate was then pelleted once more and resuspended in the same buffer. Cells were sorted using an ARIA II FACS machine and individually dispensed into the wells of a 96-well plate. Nullizygous clones were identified using a series of assays including the FLIPR membrane potential assay, western blotting and sequencing.
(§2) The FLIPR Membrane Potential Blue Explorer Kit (Molecular Devices) was used to characterise inhibitors and to optimise a high-throughput compound screen. Cells were seeded at approximately 60,000 cells/well on a 96-well plate and allowed to attach and grow overnight in a cell incubator. The next day, the cells were washed once with mHBSS and incubated in a starvation medium (composed of mHBSS with 1% dialysed heat-inactivated FBS, 23 mM NaHCO3, 10 U/ml penicillin and 10 μg/ml streptomycin) for 24 h. Cells were then washed once with mHBSS and incubated with 50 µl of the mHBSS-resuspended FMP assay dye and 50 µl of mHBSS (with or without inhibitors) and incubated at room temperature for 30 min. The plate was then placed in an EnSpire Multimode plate reader (PerkinElmer) and four sequential measurements of fluorescence were recorded as a baseline reference. Immediately after the baseline measurements were taken, 25 µl of 5 mM glutamine dissolved in mHBSS was injected into each well and the plate was shaken orbitally for 5 s before a series of consecutive fluorescence measurements were taken. The excitation wavelength was set to 530 nm and the emission was detected at 565 nm. The Δ fluorescent signal reported in the figures was taken 30 s after substrate addition. After the assay was complete, the liquid content of the plate was carefully removed, and the cell monolayer inspected to ensure it remained intact throughout the course of the assay.

[2] = biological target: T2, SNAT1 and SNAT2 (Homo sapiens, UniProt Q96QD8); assay: as above; type: cell-based; conditions: 10 mM; HCC1806 wildtype and C10 cells
T2 construct: endogenous in cells; host or cells: HCC1806 clone C10 (ASCT2ko) and clone D126 (ASCT2ko, SNAT2ko), amino acid depleted for 24 h
T2 sequence (Q96QD8 1-506): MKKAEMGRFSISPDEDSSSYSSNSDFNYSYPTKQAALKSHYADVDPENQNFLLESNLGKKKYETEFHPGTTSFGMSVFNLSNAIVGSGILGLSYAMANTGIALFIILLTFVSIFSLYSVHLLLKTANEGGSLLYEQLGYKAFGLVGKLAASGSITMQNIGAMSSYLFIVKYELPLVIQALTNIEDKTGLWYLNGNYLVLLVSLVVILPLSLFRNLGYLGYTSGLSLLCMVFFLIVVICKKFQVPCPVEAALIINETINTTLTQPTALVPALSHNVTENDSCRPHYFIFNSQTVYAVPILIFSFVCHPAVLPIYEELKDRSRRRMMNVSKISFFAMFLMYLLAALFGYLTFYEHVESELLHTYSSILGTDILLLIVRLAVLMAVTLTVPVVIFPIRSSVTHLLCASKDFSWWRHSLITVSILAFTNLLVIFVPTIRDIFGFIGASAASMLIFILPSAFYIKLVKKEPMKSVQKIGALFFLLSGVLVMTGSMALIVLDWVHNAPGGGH
Procedure: as §1, §2

Structure (SMILES) | block of glutamine (1 mM) FMP signal [1] | FMP fluorescence ([1]; time 0, replicates 1-10) | FMP fluorescence ([1]; time 12, replicates 1-10) | FMP fluorescence ([1]; time 30, replicates 1-10) | FMP fluorescence ([1]; time 40, replicates 1-10) | FMP fluorescence ([1]; time 50, replicates 1-10) | FMP fluorescence ([1]; time 60, replicates 1-10) | FMP fluorescence ([1]; time 70, replicates 1-10) | FMP fluorescence ([1]; time 80, replicates 1-10) | FMP fluorescence ([1]; time 90, replicates 1-10) | FMP fluorescence ([1]; time -10, replicates 1-10) | FMP fluorescence ([1]; time -20, replicates 1-10) | FMP signal as substrate [2]
N[C@@H](CCC(=O)NO)C(=O)O [GHX, L-glutamic acid γ-monohydroxamate] | still blocked | 22435 and 17495 and 17429 and 17955 and 18811 and 18812 and 18737 and 18055 and 17050 and 17347 | 20191 | 20609 and 15706 and 15219 and 15815 and 16260 and 16292 and 16468 and 15594 and 14527 and 15164 | 20541 and 15480 and 15193 and 15674 and 16277 and 16260 and 16583 and 15586 and 14696 and 15217 | 20610 and 15277 and 15074 and 15756 and 16154 and 16238 and 16249 and 15554 and 14656 and 15194 | 20690 and 15464 and 15031 and 15758 and 16045 and 16010 and 16126 and 15471 and 14546 and 15121 | 20527 and 15130 and 14967 and 15329 and 16082 and 16096 and 16209 and 15213 and 14316 and 15085 | 20404 and 15072 and 14875 and 15595 and 16009 and 15975 and 15951 and 15190 and 14182 and 15130 | 20524 and 15134 and 14788 and 15354 and 15654 and 15782 and 15863 and 15065 and 14296 | 22909 and 17766 and 17765 and 18446 and 19408 (2×) and 19505 and 18694 and 17349 and 17632 | 23556 and 18431 and 18738 and 19301 and 20185 and 20456 and 20335 and 19156 and 18269 and 18621 | 
C[N+](C)(C)CC(=O)O [Betaine, betaine] |  |  |  |  |  |  |  |  |  |  |  |  | strong FMP signal
